In the supplement of paper PMC11061612:

Legend:
Assay in all cases: Bliss excess, mean over the matrix (fraction); higher = more synergy
[1] = system: NCCIT (Other Solid Carcinomas)
How it was run: (§1)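 Bliss excess equals the observed combination effect minus the expected value EA + EB − EA·EB, where EA and EB are the effects of each agent alone. Combination Emax is the second-highest inhibition within the matrix. Inhibition was scaled from CellTiter-Glo 2.0 luminescence, with 0 set by vehicle wells and 1 by blank wells, after 72 hours of two-drug dosing of cells plated in 1536-well plates.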

[2] = system: MN-60 (B-Lymphoblastic Leukemia)
How it was run: as §1

[3] = system: KYSE-270 (Esophageal Squamous Cell Carcinoma)
How it was run: as §1

[4] = system: COR-L279 (Small Cell Lung Carcinoma)
How it was run: as §1

[5] = system: H9 (T-Cell Non-Hodgkin's Lymphoma)
How it was run: as §1

[6] = system: MOLM-13 (Acute Myeloid Leukemia)
How it was run: as §1

RD (Rhabdomyosarcoma) = system: RD (Rhabdomyosarcoma)
How it was run: as §1

[7] = system: SK-GT-4 (Esophageal Adenocarcinoma)
How it was run: as §1

[8] = system: DMS-114 (Small Cell Lung Carcinoma)
How it was run: as §1

[9] = system: VMRC-RCZ (Kidney Carcinoma)
How it was run: as §1

[10] = system: JHH-4 (Hepatocellular Carcinoma)
How it was run: as §1

[11] = system: SU-DHL-5 (B-Cell Non-Hodgkin's Lymphoma)
How it was run: as §1

M059J (Glioblastoma) = system: M059J (Glioblastoma)
How it was run: as §1

[12] = system: T-T (Esophageal Squamous Cell Carcinoma)
How it was run: as §1

SJSA-1 (Osteosarcoma) = system: SJSA-1 (Osteosarcoma)
How it was run: as §1

[13] = system: DAN-G (Pancreatic Carcinoma)
How it was run: as §1

[14] = system: KU812 (Chronic Myelogenous Leukemia)
How it was run: as §1

[15] = system: RPMI-8226 (Plasma Cell Myeloma)
How it was run: as §1

[16] = system: MOG-G-CCM (Low Grade Glioma)
How it was run: as §1

[17] = system: HCC1419 (Breast Carcinoma)
How it was run: as §1

`Cc1c2c(nn1C)CSCc1cc(n(C)n1)CSc1cc(c3ccccc3c1)OCCCc1c(C(=O)O)n(C)c3c-2c(Cl)ccc13` [AZD5991] + C1CN(CCC1(C(=O)N[C@@H](CCO)C2=CC=C(C=C2)Cl)N)C3=NC=NC4=C3C=CN4 [Capivasertib] (first compound max 1 µM, 7x7, partner max 3 µM) showed a Bliss excess [1] of 0.076, a Bliss excess [2] of 0.0165 and a Bliss excess [3] of 0.0421. It also gave a Bliss excess [4] of 0.0417, a Bliss excess [5] of -0.0514 and a Bliss excess [6] of -0.002. It also gave a Bliss excess (RD (Rhabdomyosarcoma)) of 0.0465, a Bliss excess [7] of -0.0213 and a Bliss excess [8] of 0.0696. For the same molecule, the Bliss excess [9] was -0.0347, the Bliss excess [10] was 0.0018 and the Bliss excess [11] was 0.0095. The Bliss excess (M059J (Glioblastoma)) was -0.101, the Bliss excess [12] was -0.0068 and the Bliss excess (SJSA-1 (Osteosarcoma)) was -0.0248. For the same molecule, the Bliss excess [13] was -0.0535, the Bliss excess [14] was -0.0011 and the Bliss excess [15] was 0.0079. The Bliss excess [16] was -0.0178 and the Bliss excess [17] was 0.0163.
`Cc1c2c(nn1C)CSCc1cc(n(C)n1)CSc1cc(c3ccccc3c1)OCCCc1c(C(=O)O)n(C)c3c-2c(Cl)ccc13` [AZD5991] + C=CCn1c(=O)c2cnc(Nc3ccc(N4CCN(C)CC4)cc3)nc2n1-c1cccc(C(C)(C)O)n1 [AZD1775] (first compound max 1 µM, partner max 1 µM) gave a Bliss excess [1] of -0.0113, a Bliss excess [2] of -0.0077 and a Bliss excess [3] of 0.013. It also gave a Bliss excess [4] of -0.0632, a Bliss excess [5] of -0.0337 and a Bliss excess [6] of -0.0021. The Bliss excess (RD (Rhabdomyosarcoma)) was 0.04, the Bliss excess [7] was -0.0617 and the Bliss excess [8] was -0.0295. The Bliss excess [9] was 0.0212, the Bliss excess [10] was 0.0308 and the Bliss excess [11] was 0.0028. The Bliss excess (M059J (Glioblastoma)) was -0.0191, the Bliss excess [12] was 0.0282 and the Bliss excess (SJSA-1 (Osteosarcoma)) was 0.0115. The Bliss excess [13] was 0.0424, the Bliss excess [14] was -0.0284 and the Bliss excess [15] was -0.0006. The Bliss excess [16] was -0.0287 and the Bliss excess [17] was -0.106.
For `Cc1c2c(nn1C)CSCc1cc(n(C)n1)CSc1cc(c3ccccc3c1)OCCCc1c(C(=O)O)n(C)c3c-2c(Cl)ccc13` [AZD5991] + CC1(C)CCC(CN2CCN(c3ccc(C(=O)NS(=O)(=O)c4ccc(NCC5CCOCC5)c([N+](=O)[O-])c4)c(Oc4cnc5[nH]ccc5c4)c3)CC2)=C(c2ccc(Cl)cc2)C1 [Venetoclax] (first compound max 1 µM, 7x7, partner max 1 µM), the Bliss excess [1] was -0.032, the Bliss excess [2] was -0.031 and the Bliss excess [3] was 0.0348. For the same molecule, the Bliss excess [4] was 0.0071, the Bliss excess [5] was 0.0048 and the Bliss excess [6] was 0.125. For the same molecule, the Bliss excess (RD (Rhabdomyosarcoma)) was 0.0081, the Bliss excess [7] was -0.0914 and the Bliss excess [8] was 0.0306. For the same molecule, the Bliss excess [9] was -0.0605, the Bliss excess [10] was 0.0098 and the Bliss excess [11] was -0.0379. It also gave a Bliss excess (M059J (Glioblastoma)) of -0.0539, a Bliss excess [12] of -0.0051 and a Bliss excess (SJSA-1 (Osteosarcoma)) of -0.0941. For the same molecule, the Bliss excess [13] was -0.0352, the Bliss excess [14] was 0.0353 and the Bliss excess [15] was 0.007. The Bliss excess [16] was -0.0199 and the Bliss excess [17] was 0.0157.
`Cc1c2c(nn1C)CSCc1cc(n(C)n1)CSc1cc(c3ccccc3c1)OCCCc1c(C(=O)O)n(C)c3c-2c(Cl)ccc13` [AZD5991] + CCN(CCO)CCCOc1ccc2c(Nc3cc(CC(=O)Nc4cccc(F)c4)[nH]n3)ncnc2c1 [AZD2811] (first compound max 1 µM, 7x7, partner max 1 µM) showed a Bliss excess [1] of -0.0049, a Bliss excess [2] of 0.0086 and a Bliss excess [3] of 0.0998. For the same molecule, the Bliss excess [4] was 0.0162, the Bliss excess [5] was -0.0072 and the Bliss excess [6] was 0.024. It also gave a Bliss excess (RD (Rhabdomyosarcoma)) of 0.0268, a Bliss excess [7] of -0.0303 and a Bliss excess [8] of 0.0287. For the same molecule, the Bliss excess [9] was 0.016, the Bliss excess [10] was 0.0134 and the Bliss excess [11] was -0.06. It also gave a Bliss excess (M059J (Glioblastoma)) of -0.0074, a Bliss excess [12] of 0.0614 and a Bliss excess (SJSA-1 (Osteosarcoma)) of 0.0839. It also gave a Bliss excess [13] of 0.0055, a Bliss excess [14] of -0.0519 and a Bliss excess [15] of 0.0744. For the same molecule, the Bliss excess [16] was 0.0013 and the Bliss excess [17] was -0.0638.
In the case of `Cc1c2c(nn1C)CSCc1cc(n(C)n1)CSc1cc(c3ccccc3c1)OCCCc1c(C(=O)O)n(C)c3c-2c(Cl)ccc13` [AZD5991] + CN(C)CCCOc1ccc(-c2ccc3ncc4c(c3c2)n(C2CCOCC2)c(=O)n4C)cn1 [AZD0156] (first compound max 1 µM, 7x7, partner max 1 µM), the Bliss excess [1] is reported as -0.039, the Bliss excess [2] is reported as 0.0047 and the Bliss excess [3] is reported as 0.0347. For the same molecule, the Bliss excess [4] was -0.0051, the Bliss excess [5] was 0.0314 and the Bliss excess [6] was -0.0329. It also gave a Bliss excess (RD (Rhabdomyosarcoma)) of 0.0095, a Bliss excess [7] of -0.031 and a Bliss excess [8] of 0.003. The Bliss excess [9] was -0.018, the Bliss excess [10] was -0.0063 and the Bliss excess [11] was -0.0041. The Bliss excess (M059J (Glioblastoma)) was 0.006, the Bliss excess [12] was -0.0025 and the Bliss excess (SJSA-1 (Osteosarcoma)) was 0.0256. The Bliss excess [13] was 0.0141, the Bliss excess [14] was -0.0788 and the Bliss excess [15] was 0.0147. For the same molecule, the Bliss excess [16] was -0.0067 and the Bliss excess [17] was 0.0105.
In the case of `Cc1c2c(nn1C)CSCc1cc(n(C)n1)CSc1cc(c3ccccc3c1)OCCCc1c(C(=O)O)n(C)c3c-2c(Cl)ccc13` [AZD5991] + C[C@@H]1COCCN1C2=NC(=NC(=C2)C3(CC3)[S@](=N)(=O)C)C4=C5C=CNC5=NC=C4 [AZD6738] (first compound max 1 µM, 7x7, partner max 10 µM), the Bliss excess [1] is reported as 0.0573, the Bliss excess [2] is reported as -0.0081 and the Bliss excess [3] is reported as 0.0289. It also gave a Bliss excess [4] of -0.0057, a Bliss excess [5] of 0.0395 and a Bliss excess [6] of 0.0037. The Bliss excess (RD (Rhabdomyosarcoma)) was 0.0482, the Bliss excess [7] was -0.0038 and the Bliss excess [8] was 0.0436. It also gave a Bliss excess [9] of 0.0308, a Bliss excess [10] of 0.0496 and a Bliss excess [11] of -0.0059. For the same molecule, the Bliss excess (M059J (Glioblastoma)) was -0.0165, the Bliss excess [12] was 0.0461 and the Bliss excess (SJSA-1 (Osteosarcoma)) was 0.0711. It also gave a Bliss excess [13] of 0.0265, a Bliss excess [14] of 0.0296 and a Bliss excess [15] of 0.008. The Bliss excess [16] was -0.0252 and the Bliss excess [17] was -0.0091.
With `Cc1c2c(nn1C)CSCc1cc(n(C)n1)CSc1cc(c3ccccc3c1)OCCCc1c(C(=O)O)n(C)c3c-2c(Cl)ccc13` [AZD5991] + C[C@@H](Nc1cc(F)cc(F)c1)c1cc(C(=O)N(C)C)cc2c(=O)cc(N3CCOCC3)oc12 [AZD8186] (first compound max 1 µM, 7x7, partner max 3 µM) the Bliss excess [1] was -0.0176, the Bliss excess [2] was -0.0454 and the Bliss excess [3] was 0.027. The Bliss excess [4] was -0.0011, the Bliss excess [5] was -0.0485 and the Bliss excess [6] was -0.0351. For the same molecule, the Bliss excess (RD (Rhabdomyosarcoma)) was 0.0195, the Bliss excess [7] was -0.0185 and the Bliss excess [8] was -0.0338. It also gave a Bliss excess [9] of 0.0141, a Bliss excess [10] of -0.0164 and a Bliss excess [11] of 0.0109. The Bliss excess (M059J (Glioblastoma)) was -0.0842, the Bliss excess [12] was 0.0265 and the Bliss excess (SJSA-1 (Osteosarcoma)) was -0.105. It also gave a Bliss excess [13] of 0.0051, a Bliss excess [14] of -0.0554 and a Bliss excess [15] of -0.0219. The Bliss excess [16] was -0.0316 and the Bliss excess [17] was -0.0038.
